IC50 data for 36 molecules are collected here from patent publication US20100056516A1 (priority 2006, published 2010).

A value given as a limit tells only on which side of the number the result lay.

Assay [1] concerns the target HIV integrase (Human immunodeficiency virus type 1 group M subtype B, UniProt P04585). The experiment in a line: integrase strand transfer assay (STA). Format: biochemical. The following applies: integrase strand transfer; read-out: IC50 in the STA assay.
The subject of assay [2] is HXB2 virus. As to the kind of experiment: microbe, parasite or virus in culture. It counts as cell-based, HIV. As to conditions: Human immunodeficiency virus 1, HXB2, HeLaP4-2, read-out: antiviral IC50 (SCIA-B). The gist of the method:
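HXB2 virus used to infect HeLa P4-2 cells in a single-cycle format; inhibition of acute infection is measured.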

The IC50 is the concentration needed to halve the response being measured. For the molecule `O=C(NCC(F)(F)F)c1c(O)c2cccnc2n(O)c1=O` [Example 22, 1,4-Dihydroxy-2-oxo-N-(2,2,2-trifluoroethyl)-1,2-dihydro-1,8-naphthyridine-3-carboxamide], the results for the IC50 in assay [1] and in assay [2] were below 50 µM and below 100 µM, respectively.
For `CCOC(=O)c1c(O)c2cc(Oc3ccc(N)cc3)cnc2n(O)c1=O` [Example 89, Ethyl 6-(4-aminophenoxy)-1,4-dihydroxy-2-oxo-1,2-dihydro-1,8-naphthyridine-3-carboxylate], the results for the IC50 in assay [1] and in assay [2] were below 50 µM and below 100 µM, respectively.
For `NCc1cccc(-c2cnc3c(c2)c(O)c(-c2ccccc2)c(=O)n3O)c1` [Example 50, 6-[3-(Aminomethyl)phenyl]-1,4-dihydroxy-3-phenyl-1,8-naphthyridin-2(1H)-one], in that order: below 50 µM and below 100 µM.
For `CN(Cc1ccccc1)C(=O)c1c(O)c2cccnc2n(O)c1=O` [Example 7, N-Benzyl-1,4-dihydroxy-N-methyl-2-oxo-1,2-dihydro-1,8-naphthyridine-3-carboxamide], in that order: below 50 µM and below 100 µM.
The matching figures for `O=c1cc(N2Cc3ccc(-c4ccccc4)cc3C2)c2cccnc2n1O` [Example 256, 1-hydroxy-4-(5-phenyl-1,3-dihydro-2H-isoindol-2-yl)-1,8-naphthyridin-2(1H)-one]: below 50 µM and below 100 µM.
As to `O=C(NC1CC1)c1c(O)c2cccnc2n(O)c1=O` [Example 6, N-Cyclopropyl-1,4-dihydroxy-2-oxo-1,2-dihydro-1,8-naphthyridine-3-carboxamide], the IC50 in assay [1] is below 50 µM; in assay [2], below 100 µM.
`O=C(NCCc1ccccc1)c1ccc2c(c1)CN(c1cc(=O)n(O)c3ncccc13)CC2` [Example 260, 4-[7-(phenylethylaminocarbonyl)-3,4-dihydroisoquinolin-2(1H)-yl]-1-hydroxy-1,8-naphthyridin-2(1H)-one]: the IC50 in assay [1] is below 50 µM; in assay [2] it was below 100 µM.
For `COc1cccc(NC(=O)c2c(O)c3cccnc3n(O)c2=O)c1` [Example 12, 1,4-Dihydroxy-N-(3-methoxyphenyl)-2-oxo-1,2-dihydro-1,8-naphthyridine-3-carboxamide], in that order: below 50 µM and below 100 µM.
With `O=c1cc(NC2CCN(Cc3ccccc3)CC2)c2cccnc2n1O` [Example 108, 4-[(1-Benzylpiperidin-4-yl)amino]-1-hydroxy-1,8-naphthyridin-2(1H)-one], the values for the IC50 in assay [1] and in assay [2] were below 50 µM and below 100 µM, respectively.
The matching figures for `O=c1cc(-c2ccccc2)c2cccnc2n1O` [Example 171, 1-Hydroxy-4-phenyl-1,8-naphthyridin-2(H)-one]: below 50 µM and below 100 µM.
For `O=c1cc(-c2ccc3ncccc3c2)c2cccnc2n1O` [Example 184, 1-hydroxy-4-quinolin-6-yl-1,8-naphthyridin-2(1H)-one], in that order: below 50 µM and below 100 µM.
The matching figures for `CC(=O)N1CCN(Cc2cccc(-c3cc(=O)n(O)c4ncccc34)c2)CC1` [Example 213, 4-{3-[(4-acetyl-1-piperazinyl)methyl]phenyl}-1-hydroxy-1,8-naphthyridin-2(1H-one)]: below 50 µM and below 100 µM.
On to `CN1C(=O)c2c(c3cccnc3n(O)c2=O)NC1c1ccccc1` (stereo not drawn) [Example 216, 6-Hydroxy-3-methyl-2-phenyl-2,3-dihydropyrimido[5,4-c]-1,8-naphthyridine-4,5(1H, 6H)-dione], for which the 50% inhibitory concentration (IC50) was below 50 µM in assay [1] and below 100 µM in assay [2].
For `CC(NCc1cccc(Cl)c1)c1cnc2c(c1)c(O)c(-c1ccccc1)c(=O)n2O` (stereo not drawn) [Example 76, 6-{1-[(3-Chlorobenzyl)amino]ethyl}-1,4-dihydroxy-3-phenyl-1,8-napthyridin-2(1H)-one], the values for the IC50 in assay [1] and in assay [2] were below 50 µM and below 100 µM, respectively.
The matching figures for `CCOC(=O)c1c(N)c2cc(-c3ccccc3)cnc2n(O)c1=O` [Example 98, Ethyl 4-amino-1-hydroxy-2-oxo-6-phenyl-1,2-dihydro-1,8-naphthyridine-3-carboxylate]: below 50 µM and below 100 µM.
For `Cc1ccc(CNc2cc(=O)n(O)c3ncccc23)cc1` [Example 143, 1-hydroxy-4-[(4-methylbenzyl)amino]-1,8-naphthyridin-2(1H-one)], in that order: below 50 µM and below 100 µM.
For the molecule `O=c1c(-c2ccccc2)c(O)c2cc(Br)cnc2n1O` [Example 47, 6-Bromo-1,4-dihydroxy-3-phenyl-1,8-naphthyridin-2(1H)-one], the IC50 in assay [1] is below 50 µM; in assay [2], below 100 µM.
For the molecule `NCc1cccc(-c2cncc(-c3cc(=O)n(O)c4ncccc34)c2)c1` [Example 190, 4-{5-[3-(aminomethyl)phenyl]pyridin-3-yl}-1-hydroxy-1,8-naphthyridin-2(1H)one], the figures for the concentration for half-maximal inhibition (IC50) in assay [1] and in assay [2] were below 50 µM and below 100 µM, respectively.
For `O=c1cc(NC(CN2CCCCC2)c2ccccc2)c2cccnc2n1O` (stereo not drawn) [Example 166, 1-hydroxy-4-{[1-phenyl-2-(1-piperidinyl)ethyl]amino}-1,8-naphthyridin-2 (1H-one)], in that order: below 50 µM and below 100 µM.
The matching figures for `CN(Cc1cccc(Cn2cncn2)c1)c1cc(=O)n(O)c2ncccc12` [Example 116]: below 50 µM and below 100 µM.
The matching figures for `CCOC(=O)c1c(O)c2cc(-c3cccc(C#N)c3)cnc2n(O)c1=O` [Example 60, Ethyl 6-(3-cyanophenyl)-1,4-dihydroxy-2-oxo-1,2-dihydro-1,8-naphthyridine-3-carboxylate]: below 50 µM and above 100 µM.
`CCOC(=O)c1c(O)c2cc(C(=O)NC3CCCCC3)cnc2n(O)c1=O` [Example 86, ethyl-6-[(cyclohexylamino)carbonyl]-1,4-dihydroxy-2-oxo-1,2-dihydro-1,8-naphthyridine-3-carboxylate]: the IC50 was below 50 µM in assay [1] and below 100 µM in assay [2].
For `O=c1c(-c2ccccc2)c(O)c2cc(S(=O)(=O)Nc3ccccc3)cnc2n1O` [Example 95, 5,8-Dihydroxy-7-oxo-N,6-diphenyl-7,8-dihydro-1,8-naphthyridine-3-sulfonamide], in that order: below 50 µM and below 100 µM.
The matching figures for `CCOC(=O)c1c(O)c2cc(-c3cc(C)cc(C)c3)cnc2n(O)c1=O` [Example 65, Ethyl 6-(3,5-dimethylphenyl)-1,4-dihydroxy-2-oxo-1,2-dihydro-1,8-napthyridine-3-carboxylate]: below 50 µM and below 100 µM.
The matching figures for `O=c1c(-c2c(F)cccc2F)c(O)c2cccnc2n1O` [Example 29, 3-(2,6-Difluorophenyl)-1,4-dihydroxy-1,8-naphthyridin-2(1H)-one]: below 50 µM and below 100 µM.
For the molecule `O=c1cc(-c2cccc(CO)c2)c2cccnc2n1O` [Example 183, 1-hydroxy-4-[3-(hydroxymethyl)phenyl]-1,8-naphthyridin-2(1H)-one], the IC50 is below 50 µM in assay [1] and below 100 µM in assay [2].
The matching figures for `CCOC(=O)c1c(O)c2cc(-c3cccc(-c4ccccc4)c3)cnc2n(O)c1=O` [Example 64, Ethyl 6-biphenyl-3-yl-1,4-dihydroxy-2-oxo-1,2-dihydro-1,8-naphthyridine-3-carboxylate]: below 50 µM and below 100 µM.
As for `CNC(=O)c1ccc2c(=O)n(O)c3ncccc3c2c1` [Example 266, 5-Hydroxy-N-methyl-6-oxo-5,6-dihydrobenzo[c]-1,8-naphthyridine-9-carboxamide], the 50% inhibitory concentration (IC50) in assay [1] was below 50 µM; in assay [2], below 100 µM.
For `Nc1cc(=O)n(O)c2ncccc12` [Example 99, 4-Amino-1-hydroxy-1,8-naphthyridin-2(1H)-one], in that order: below 50 µM and below 100 µM.
As to `CCOC(=O)c1c(O)c2cc(Cc3ccccc3)cnc2n(O)c1=O` [Example 63, Ethyl 6-benzyl-1,4-dihydroxy-2-oxo-1,2-dihydro-1,8-naphthyridine-3-carboxylate], the half-inhibitory concentration (IC50) is below 50 µM in assay [1] and below 100 µM in assay [2].
Consider `CCOC(=O)c1c(O)c2cc(Br)cnc2n(O)c1=O` [Example 3, Ethyl 6-bromo-1,4-dihydroxy-2-oxo-1,2-dihydro-1,8-naphthyridine-3-carboxylate], for which the IC50 in assay [1] is below 50 µM; in assay [2], below 100 µM.
The matching figures for `NCc1cccc(-c2ccc3c(c2)CN(c2cc(=O)n(O)c4ncccc24)CC3)c1` [Example 252, 4-[7-(3-aminomethylphenyl)-3,4-dihydroisoquinolin-2(1H)-yl]-1-hydroxy-1,8-naphthyridin-2(1H)-one]: below 50 µM and below 100 µM.
For `O=c1cc(NCC(c2ccccc2)N2CCOCC2)c2cccnc2n1O` (stereo not drawn) [Example 110, 1-Hydroxy-4-[(2-morpholin-4-yl-2-phenylethyl)amino]-1,8-naphthyridin-2(1H)-one], in that order: below 50 µM and below 100 µM.
Regarding `O=C1N[C@H](c2ccccc2)[C@H](c2ccccc2)Nc2c1c(=O)n(O)c1ncccc21` [Example 170, (2S, 3R)-7-hydroxy-2,3-diphenyl-3,4-dihydro-1H-[1,4]diazepino[6,5-c]-1,8-naphthyridine-5,6(2H, 7H)-dione], the IC50 in assay [1] is below 50 µM; in assay [2], below 100 µM.
The matching figures for `O=c1cc(NCc2ccccc2)c2cccnc2n1O` [Example 126, 4-(benzylamino)-1-hydroxy-1,8-naphthyridin-2(1H)-one]: below 50 µM and below 100 µM.
For `O=c1cc(-c2ccc3ccccc3c2)c2cccnc2n1O` [Example 173, 1-hydroxy-4-(2-naphthyl)-1,8-naphthyridin-2(1H)-one], in that order: below 50 µM and below 100 µM.
